Values of other authors in PMC4168267 (Scientific Reports, 2014).

Assays:
chymotrypsin = experiment: chymotrypsin
Gαi1-GDP = Gαi1-GDP (Homo sapiens, UniProt P63096); settings: R6A reference peptide of the competition assay
Gαi1-GDP, sequence (P63096 whole entry): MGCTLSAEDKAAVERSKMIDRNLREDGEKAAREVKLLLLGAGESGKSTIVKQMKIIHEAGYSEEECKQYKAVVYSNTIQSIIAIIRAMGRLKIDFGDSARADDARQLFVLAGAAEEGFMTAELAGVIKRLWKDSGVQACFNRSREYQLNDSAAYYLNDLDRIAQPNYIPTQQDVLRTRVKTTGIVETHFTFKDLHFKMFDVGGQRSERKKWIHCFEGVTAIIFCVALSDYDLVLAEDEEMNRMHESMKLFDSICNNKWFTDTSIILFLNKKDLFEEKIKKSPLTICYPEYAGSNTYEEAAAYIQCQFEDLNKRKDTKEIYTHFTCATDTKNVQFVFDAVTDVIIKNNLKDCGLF

cleaved bond (chymotrypsin) | not cleaved (chymotrypsin) | Kd (Gαi1-GDP) | Sequence
Y5-E, major | intact | – | MITWYEFVAGTK
– | – | 60 nM | MSQTKRLDDQLYWWEYL [Peptide R6A]
